System: scavenger receptor class A (SR-A) activity
Assay: Scavenger receptor class A (SR-A) activity: [125I]AcLDL association and degradation assays
Format: cell-based, human
Conditions: 0.6 nM; 5 to 10 μg/mL [125I]AcLDL, 18 hours
Excerpt: A scavenger receptor is a lipoprotein receptor expressed on macrophages. It recognizes modified LDL such as oxidized LDL or AcLDL, leading to endocytosis. A ligand of such receptor that has been incorporated into a cell is degraded in the lysosome. Such scavenger receptor plays a very important role on formation of foam cells from macrophages. Known examples of a scavenger receptor include a scavenger receptor class A (SR-A), CD36, lectin-like oxidized LDL receptor-1 (LOX-1), and CD68 [Greaves D R et al., J Lipid Res. 2005; 46: 11-20.]. Oxidized LDL can bind to the four types of the above scavenger receptors. However, the only scavenger receptor to which AcLDL binds is SR-A. In this experiment, AcLDL, which is a representative example of modified LDL, was used as a ligand and the activity of SR-A serving an exclusive scavenger receptor capable of recognizing AcLDL was assayed (FIG. 9).
Peripheral blood human monocytes (4×10^6cells/6 cm dish) were cultured for 7 days in an RPMI-1640 medium (2 mL) containing 10% human serum so as to differentiate into macrophages. At such time, 0.6 nM salusin-α or salusin-β was added during culture to examine effects of salusin-α and salusin-β on the endocytosis activity (SR-A activity) of [^125I]AcLDL. On Day 7, the medium was changed. An adequate amount of medium was added to [^125I]AcLDL (5 to 10 μg/mL) and 0.6 nM salusin-α or salusin-β so as to result in a total amount of 2 mL. The cells were further cultured for 18 hours.
The cells were washed once with PBS containing 3% BSA and then washed twice with PBS. 0.1 N NaOH (1 mL) was added thereto and the resultant was allowed to stand at room temperature for 30 minutes. The cells were recovered into a polystyrene tube (12×75 mm, Fisher Scientific Company), further washed with 0.1 N NaOH (1 mL), and recovered again. The total amount of the cell extraction solution was assayed using a y counter. The protein concentration of a portion thereof was determined by the BCA method (Pierce). The cell association (μg/mg cell protein) of [^125I]AcLDL was calculated by dividing the radioactivity (cpm) of the cell extraction solution by the specific activity (cpm/μg) of [^125I]AcLDL and the cell protein amount (mg) per dish [Miyazaki A et al., J Biol Chem. 1994; 269: 5264-5269].
[^125I]AcLDL incorporated by macrophages via scavenger receptors are degraded in the lysosome. […]
A portion (750 μL) was collected from each culture supernatant into a polystyrene tube (12×75 mm, Fisher Scientific Company). […] In addition, the peptide from [^125I]AcLDL that had been processed by cells was exclusively detected in the trichloroacetic acid soluble fraction. […]

Substance	[125I]AcLDL association assay vs control cells	[125I]AcLDL degradation assay vs control cells
salusin-β: peptide (SEQ ID NO: 3) comprising 20 amino acid residues, generated by processing from preprosalusin (AIFIFIRWLLKLGHHGRAPP; listed as Homo sapiens) [reference compound]	no significant changes	no significant changes
salusin-α: peptide (SEQ ID NO: 1) comprising 28 amino acid residues, generated by processing from preprosalusin (SGALPPAPAAPRPALRAQRAGPAGPGAK; listed as Homo sapiens)	no significant changes	no significant changes

From patent publication US20110165173A1, “THERAPEUTIC AGENT AND DETECTION REAGENT FOR ARTERIOSCLEROTIC DISEASE WHICH TARGETS FOR SALUSIN” (PROTEINEXPRESS CO., LTD., priority 2007, published 2011)
